Source: patent EP4424671A1, “NOVEL TRICYCLIC DERIVATIVE COMPOUND AND USE THEREOF” (Huchembio Co., Ltd., priority 2021, dated 2023)

Tested on: STAT3 transcriptional activity
Assay: STAT3 transcriptional activity inhibitory effect, luciferase reporter assay with IL-6 stimulation
Format: cell-based, human
Details: for STAT3 transcriptional activity inhibitory effect % inhibition, 50-70% / inhibition at 1 µM / STAT3 transcriptional activity inhibitory effect % inhibition, 70% or more: IL-6 (10 ng/mL), 24 hours, HEK293 cells with STAT3 promoter and luciferase reporter; for inhibition at 1 µM: Homo sapiens, read-out: STAT3 transcriptional activity inhibitory effect % inhibition, 50% or less; for STAT3 activity inhibitory effect (in words): compounds at 1 µM compared with BBI-608 at 3 µM
Experimental: For HEK293 cells, an immortalized human kidney cell line, transformed HEK293 cells, in which an STAT3 promoter and a luciferase reporter were stably expressed, were used. The HEK293 cells, in which the STAT3 promoter was stably expressed, were cultured in a cell incubator at 5% CO2 and 37°C using an MEM (10% FBS) medium, and then an inhibitory effect on STAT3 transcriptional activity was confirmed by the following method.
First, HEK293 cells, in which the STAT3 promoter was stably expressed, were inoculated into a 96-well plate (white, clear bottom culture plate) at a density of 2X 10^4 cells/well, and then cultured in an incubator at 37°C and 5% CO2 for 24 hours. Then, the compound synthesized according to the above synthesis example (1 µM) or BBI-608 (Napabucasin; comparative group 3 µM) and IL-6 (10 ng/mL) were treated together, and reacted in an incubator at 37°C and 5% CO2 for 24 hours. Afterwards, the culture medium in the 96-well plate was removed, and the cells were lysed by treatment with Passive Lysis Buffer (Promega/Cat. Number E1941). Luciferase activity was tested using the Luciferase Assay System (Promega/Cat. Number E1501), and a luminescence value was measured using a microplate reader. A well not treated with IL-6 (10 ng/mL) without test substance treatment was used as a negative control, and a well treated with IL-6 (10 ng/mL) without test substance treatment was used as a positive control. A degree of STAT3 transcriptional activity inhibitory effect by the compound of the present invention was evaluated by comparing the luminescence values from each well.

Structure (SMILES)	inhibition at 1 µM (compound concentration of 1 µM)	STAT3 transcriptional activity inhibitory effect % inhibition, 70% or more (compound concentration of 1 µM)	STAT3 activity inhibitory effect (in words)	further results
CC(=O)c1cc2c(o1)C(=O)c1ccccc1C2=O [BBI-608, Napabucasin, reference compound]				STAT3 transcriptional activity inhibitory effect % inhibition, 50-70% (comparative group at 3 uM): ○ (50-70%)
O=C1C(=O)c2cc(-c3cncc4ccccc34)ccc2-c2ccc(Br)cc21 [Compound 2, 2-bromo-7-(isoquinolin-4-yl)phenanthrene-9,10-dione]	≤ 50%			
O=c1c2ccccc2oc2ccc(-c3cncc4ccccc34)cc12 [Compound 3, 2-(isoquinolin-4-yl)-9H-xanthen-9-one]	≤ 50%			
O=c1c2ccccc2sc2ccc(-c3cncc4ccccc34)cc12 [Compound 4, 2-(isoquinolin-4-yl)-9H-thioxanthen-9-one]				STAT3 transcriptional activity inhibitory effect % inhibition, 50-70% (compound concentration of 1 µM): ○ (50-70%)
O=C1c2ccccc2-c2ccc(-c3cncc4nccnc34)cc21 [Compound 5, 2-(pyrido[3,4-b]pyrazin-8-yl)-9H-fluoren-9-one]				STAT3 transcriptional activity inhibitory effect % inhibition, 50-70% (compound concentration of 1 µM): ○ (50-70%)
O=C1c2ccccc2-c2ccc(-c3cncc4cccnc34)cc21 [Compound 7, 2-(1,6-naphthyridin-8-yl)-9H-fluoren-9-one]		○ (70% or more)	excellent STAT3 activity inhibitory effect	
O=C1c2ccccc2-c2ccc(-c3nccc4ncccc34)cc21 [Compound 8, 2-(1,6-naphthyridin-5-yl)-9H-fluoren-9-one]		○ (70% or more)	excellent STAT3 activity inhibitory effect	
O=C1c2ccccc2-c2ccc(-c3cnn4ccccc34)cc21 [Compound 9, 2-(pyrazolo[1,5-a]pyridin-3-yl)-9H-fluoren-9-one]		○ (70% or more)	excellent STAT3 activity inhibitory effect	
O=C1c2ccccc2-c2ccc(-c3cnc4ccccn34)cc21 [Compound 10, 2-(imidazo[1,2-a]pyridin-3-yl)-9H-fluoren-9-one]	≤ 50%			
c1ccc2c(-c3ccc4c(c3)sc3ccccc34)cncc2c1 [Compound 11, 4-(dibenzo[b,d]thiophen-3-yl)isoquinoline]	≤ 50%			
c1ccc2c(-c3ccc4c(c3)oc3ccccc34)cncc2c1 [Compound 12, 4-(dibenzo[b,d]furan-3-yl)isoquinoline]	≤ 50%			
c1ccc2c(-c3ccc4c(c3)[nH]c3ccncc34)cncc2c1 [Compound 13, 7-(isoquinolin-4-yl)-5H-pyrido[4,3-b]indole]		○ (70% or more)	excellent STAT3 activity inhibitory effect	
O=C1c2ccccc2-c2ccc(-c3cncc4ccccc34)cc21 [Compound 14, 2-(isoquinolin-4-yl)-9H-fluoren-9-one]		○ (70% or more)	excellent STAT3 activity inhibitory effect	
c1ccc2c(-c3ccc4c(c3)[nH]c3ccccc34)cncc2c1 [Compound 15, 2-(isoquinolin-4-yl)-9H-carbazole]				STAT3 transcriptional activity inhibitory effect % inhibition, 50-70% (compound concentration of 1 µM): ○ (50-70%)
c1ccc2c(-c3ccc4c5c([nH]c4c3)CCCC5)cncc2c1 [Compound 16, 7-(isoquinolin-4-yl)-2,3,4,9-tetrahydro-1H-carbazole]				STAT3 transcriptional activity inhibitory effect % inhibition, 50-70% (compound concentration of 1 µM): ○ (50-70%)
O=C1c2ccccc2-c2ccc(-c3cccc4ccncc34)cc21 [Compound 17, 2-(isoquinolin-8-yl)-9H-fluoren-9-one]	≤ 50%			
O=C1c2ccccc2-c2ccc(-c3cccc4cnccc34)cc21 [Compound 18, 2-(isoquinolin-5-yl)-9H-fluoren-9-one]				STAT3 transcriptional activity inhibitory effect % inhibition, 50-70% (compound concentration of 1 µM): ○ (50-70%)
O=C1c2ccccc2-c2ccc(-c3cccc4nccn34)cc21 [Compound 19, 2-(imidazo[1,2-a]pyridin-5-yl)-9H-fluoren-9-one]	≤ 50%			
O=C1c2ccccc2-c2ccc(-c3cccn4cnnc34)cc21 [Compound 20, 2-([1,2,4]triazolo[4,3-a]pyridin-8-yl)-9H-fluoren-9-one]	≤ 50%			
c1ccc2c(-c3ccc4c5c([nH]c4c3)CCC5)cncc2c1 [Compound 21, 6-(isoquinolin-4-yl)-1,2,3,4-tetrahydrocyclopenta[b]indole]		○ (70% or more)	excellent STAT3 activity inhibitory effect	
O=C1c2ccccc2-c2ccc(-c3nccc4ccccc34)cc21 [Compound 22, 2-(isoquinolin-1-yl)-9H-fluoren-9-one]	≤ 50%			
O=C1c2ccccc2-c2ccc(-c3cccn4ccnc34)cc21 [Compound 23, 2-(imidazo[1,2-a]pyridin-8-yl)-9H-fluoren-9-one]		○ (70% or more)	excellent STAT3 activity inhibitory effect	
